In data set [1] the test system is Queensland fruit flies antennae and palps. Put plainly: Electroantennogram (EAG) and Electropalpogram (EPG) screening. Details: species or system Bactrocera tryoni. An excerpt: FIG. 2. Electrophysiological responses of Queensland fruit flies antennae (A) and palps (B) to fungal (FV) components. Graphs located on the upper part of each figure represent the electric potential of the antenna/palp. Arrows indicate points in time at which chemical stimulations are applied. Olfactory “responses” are characterised by sudden drops (spike) of the electric potential in the antenna; the amplitude of which is positively correlated to response strength. Stars indicate statistical significance of response amplitudes elicited by test compounds compared to that of the solvent (blank=paraffin oil). Bars represent the normalized responses relative to a positive control (ethyl hexanoate) of male (grey) and female (white) flies. Letters above bars indicate significant differences in response strength between each sex.
Graphs located on the upper part represent the electric potential of the antenna/palp. Arrows indicate points in time at which chemical stimulations are applied. Olfactory “responses” are characterised by sudden drops (spike) of the electric potential in the antenna; the amplitude of which is positively correlated to response strength. Stars indicate statistical significance of response amplitudes elicited by test compounds compared to that of the solvent (blank=paraffin oil). Bars represent the normalized responses relative to a positive control (ethyl hexanoate) of male (grey) and female (white) flies. Letters above bars indicate significant differences in response strength between male and female Qfly.

Data set [2] is described as follows: Release rate from LDPE sachets by gravimetry. It is filed as physicochemical. Particulars: for Release rate per thickness of LDPE pouch: 22° C., constant, laboratory; for Estimated longevity: standard size sachet (50 cm^2), 1 ml of neat compound. An excerpt:
Sachets consist of plastic pouches made of Low Density PolyEthylene (LDPE) layflat tubing of determined size and thickness. Each sachet contained one or several dental wicks (approximately 4 cm length and 1 cm diameter) on which a given amount of the neat chemical compound was applied (between 0.1 and 5 g). The impregnated wick (20) was subsequently enclosed in the LDPE pouch (10) and sealed using a heat sealer (FIG. 3).
Release rates of the short chain esters and fungal alcohols were investigated in a range of sachet designs.

Another data set relates to female B. tryoni. Nature of the data set: GC-FID-EAD with odours of infested yellow nectarines. Details: species or system Bactrocera tryoni. Particulars: female B. tryoni antenna. On the procedure: Gas-chromatography linked to electrophysiology (GC-FID-EAD) was conducted using female B. tryoni and odours of infested yellow nectarines (collected by SPME), to identify volatiles of interest as candidate female attractants.

Data set [3] deals with Mediterranean fruit fly, Ceratitis capitata. Particulars: cited from earlier work.

Like-named read-outs stand apart in the source and are kept apart here. Some results are limits rather than exact numbers.

Turning to `CCC(C)CO` (stereo not shown) [2-Methyl-butanol, 2-methyl-1-butanol], the results for the “electrophysiological responses (EAG/EPG)” value in data set [1] (listed as 2-methyl-1-butanol) and in data set [1] (listed as 2-methylbutanol) were “strong electrophysiological responses” and “strong responses”, respectively. Also, the “Release rate per thickness of LDPE pouch” value in data set [2] (50 μm LDPE pouch) is 16.4 mg/day; in data set [2] (100 μm LDPE pouch), 4.1 mg/day; in data set [2] (150 μm LDPE pouch), 2.1 mg/day. The Estimated longevity in data set [2] was over 1 year.
On to `CCOC(C)=O` [Ethyl acetate], for which the “Release rate per thickness of LDPE pouch” value in data set [2] (50 μm LDPE pouch) worked out at 880 mg/day; in data set [2] (100 μm LDPE pouch), 302.7 mg/day; in data set [2] (150 μm LDPE pouch), 180.6 mg/day; in data set [2] (200 μm LDPE pouch) it was 134 mg/day. For the same compound, in data set [2], the Estimated longevity is listed as about 6 days.
In the same order, the values of `CCCC(=O)OCC` [Ethyl butyrate] are 700 mg/day, 295 mg/day, 171 mg/day, 127 mg/day and about 6 days.
For `CCOC(=O)CC` [Ethyl propionate] the same measures were 880 mg/day, 321 mg/day, 200 mg/day, 171 mg/day and about 5 days.
In the case of `CC(C)CCO` [Isoamyl alcohol], the “electrophysiological responses (EAG/EPG)” value in data set [1] is given as “strong electrophysiological responses”. The results for the “Release rate per thickness of LDPE pouch” value in data set [2] (50 μm LDPE pouch), in data set [2] (100 μm LDPE pouch) and in data set [2] (150 μm LDPE pouch) were 12 mg/day, 3 mg/day and 2 mg/day, respectively. Also, in data set [2], the Estimated longevity was over 1 year.
For the compound `CC(C)CO` [Isobutyl alcohol], the “electrophysiological responses (EAG/EPG)” value was “weak and inconsistent responses” in data set [1]; “strong electrophysiological responses” in data set [1] (listed as iso-butyl alcohol). The “Release rate per thickness of LDPE pouch” value in data set [2] (50 μm LDPE pouch) came out at 20 mg/day; in data set [2] (100 μm LDPE pouch) it was 4 mg/day; in data set [2] (150 μm LDPE pouch) it was 2 mg/day. For the same compound, the Estimated longevity in data set [2] was over 1 year.
In the case of `CCCCCCC1CCC(=O)O1` (stereo not shown) [γ-decalactone], the “electrophysiological (EAD) response” value with female B. tryoni is reported as “significant response”. In data set [3], the “electrophysiological response in EAG” value is given as “evoke an electrophysiological response”.

These data come from patent US20240000071A1, “DEVICES, COMPOUNDS AND METHODS FOR INSECT CONTROL” (Agriculture Victoria Services Pty Ltd, priority 2020, published 2024).
